The source of these data is patent US5990170A, “Therapeutic use of mono and bicarboxylic acid amides active at the peripheral cannabinoid receptor” (Lifegroup S.p.A., priority 1994, dated 1999).

Like-named read-outs stand apart in the source and are kept apart here. A value given as a limit tells only on which side of the number the result lay.

Series [1] is described as follows: Solubility in water and organic solvents. The following applies: for solubility: organic solvent or mixture; for solubility in water: result in words.
Series [2] concerns the target T1, CB2 receptor (RBL-2H3 cell membranes) (Rattus norvegicus, UniProt Q9QZN9).
T1 construct: Preparation of Plasmatic Membranes of RBL-2H3 Cells; endogenous in cells; host or cells: RBL-2H3 (rat basophilic leukemia) cell membranes
T1 sequence (Q9QZN9 1-360): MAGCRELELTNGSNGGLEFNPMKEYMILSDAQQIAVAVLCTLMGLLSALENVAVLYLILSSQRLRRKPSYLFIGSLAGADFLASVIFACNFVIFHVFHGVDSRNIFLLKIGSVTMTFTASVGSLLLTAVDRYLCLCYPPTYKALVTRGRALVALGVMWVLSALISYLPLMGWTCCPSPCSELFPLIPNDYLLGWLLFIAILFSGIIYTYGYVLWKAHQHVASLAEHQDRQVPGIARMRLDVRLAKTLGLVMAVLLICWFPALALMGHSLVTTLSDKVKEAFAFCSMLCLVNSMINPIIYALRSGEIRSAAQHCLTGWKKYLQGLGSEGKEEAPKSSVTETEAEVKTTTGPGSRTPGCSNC
The experiment in a line: Competitive displacement of 3H-WIN 55,212-2 binding to RBL-2H3 cell membranes. The following applies: for inhibition at 10 µM: read-out: % Displacement. The method, then:
RBL-2H3 cells (100×10^6), frozen at -80° C., were thawed with 4 ml of Tris-HCl buffer solution 50 mM (pH 7.4), added with 0.25% w/v of Tripsin inhibitor, TYPE II-S: SOY BEAN® (distributed by Sigma). The cells were resuspended in the buffer and homogenized. The homogenate was centrifuged at 1500×g at 4° C. for 10 min. The supernatant obtained was collected and the precipitate was resuspended in 4 ml of the previous buffer. The resuspended precipitate was homogenized and centrifuged again at 1500×g at 4° C. for 5-10 min. The resulting supernatant was combined to the supernatant previously obtained and centrifuged at 5000×g for 10 min. After centrifugation, the supernatant was collected and further centrifuged at 40,000×g at 4° C. for 30 min. The resulting precipitate was resuspended in 0.5 ml of the buffer solution described above, with addition of 1% Bovine Serum Albumin fatty acid free. The obtained suspension was centrifuged at 40,000×g at 4° C. for 30 min. The resulting precipitate was collected and resuspended in buffer solution containing 50 mM Tris HCl, 1 mM Tris-EDTA, 3 mM MgCl2, pH 7.4, in order to obtain a proteic concentration of 1 μg/μl approx. This preparation may be used fresh, or frozen at -80° C. and utilized within few days.
Non-radioactive WIN 55,212-2 (1 μM) was used to inhibit specific binding. […] The competitors were added to the binding mixture prior to the labelled ligand. In both cases, for an evaluation of the reference specific binding, ethanol and DMSO were added at the same final concentration to the total binding and to the aspecific one, also in the absence of competitors.
WIN 55,212-2 was used at a concentration of 3 μM, whereas the other compounds were used at a concentration of 10 μM.
Incubation was carried out in the presence of 1% DMSO. The values of Inhibitory Concentration 50 (IC50) are expressed as means ± SEM, after the number of experiments reported hereinbelow.

The next series has as its system RBL-2H3 cells. The experiment in a line: Inhibition of 3H-serotonin release induced by ADNP/DNP-HSA immunogenic stimulation in RBL-2H3 cells. It counts as cell-based, rat. The settings on record: for EC50: 15 minutes release period (Table 9); for inhibition at 100 µM: 100 μM (Table 8); for inhibition at 30 µM: 30 μM (Table 8).
The mark [3] stands for this setting: Rattus norvegicus, RBL-2H3, 0.25 h, 0.1% DMSO and 0.1% ethanol (Table 3), read-out: 3H-serotonin net release (%).
Where [4] appears, read: Rattus norvegicus, RBL-2H3, read-out: EC50, concentration inhibiting by 50% the net release of 3H serotonin, 0.2% DMSO.
Where [5] appears, read: Rattus norvegicus, RBL-2H3, read-out: 3H-serotonin release inhibition %, 0.2% DMSO.
Where [6] appears, read: Rattus norvegicus, RBL-2H3, read-out: 3H-serotonin release inhibition %, 1% DMSO.
[7] abbreviates: Rattus norvegicus, RBL-2H3, read-out: EC50, concentration inhibiting by 50% the net release of 3H serotonin, 1% DMSO.

For the compound `C=CCCCCCCCCC(=O)NCCO` [Example 28, N-(2-hydroxyethyl)-10-undecenoylamide], the solubility in series [1] (dmso) and in series [1] (ethanol) was over 10000 µg/mL each time. In series [1], the solubility in water entry was “scarcely soluble”. In addition, the inhibition at 10 µM in series [2] came out at 77%. In addition, in the series with RBL-2H3 cells (setting [3]), the activity at 100 µM is 100%.
On to `CCCCCCC(C)(C)c1cc(O)c2c(c1)OC(C)(C)[C@@H]1CCC(=O)C[C@@H]21` (relative stereo) [Nabilone, 3-(1,1-dimethylheptyl)-6,6a,7,8,10,10a-hexahydro-1-hydroxy-6,6-dimethyl-9H-dibenzo-[b,d]-pyran-9-one, reference compound], for which the IC50 in series [2] was 0.0026 ± 0.0014 µM; with RBL-2H3 cells (Rattus norvegicus, RBL-2H3, 0.25 h, read-out: ED50) it was 2.8 µM; with RBL-2H3 cells (read-out: ED50, inhibition of 3H-serotonin release, + anandamide (12.5 μM) (Table 5), 15 min), 5 µM. Besides, the inhibition at 10 µM in series [2] came to 100%. The “binding to the peripheral receptor” value in series [2] (result in words) is “able to bind to the receptor and to compete”. Besides, the “3H-serotonin net release inhibition (%)” value with RBL-2H3 cells (5 μM, + anandamide (12.5 μM) (Table 4)) is listed as 50%. The activity at 10 µM in the series on RBL-2H3 cells (Rattus norvegicus, RBL-2H3, 0.25 h, read-out: 3H-serotonin net release (%)) was 0%. Moreover, in the series with RBL-2H3 cells (Rattus norvegicus, RBL-2H3, read-out: 3H-serotonin net release inhibition (%), 5 μM, - anandamide (Table 4)), the inhibition at 5 µM was found to be 90%. The “functional effect following receptor activation (serotonin release)” value with RBL-2H3 cells (result in words) is given as “able to inhibit, in a concentration-dependent way, RBL cells immunogenic activation”.
Regarding `CCCCCCCCCCCCCCCC(=O)N[C@H](C)CO` [Example 30, N-palmitoyl-[R(-)-2-amino-1-propanol]], the figures for the solubility in series [1] (dmso) and in series [1] (ethanol) were over 5000 µg/mL and over 10000 µg/mL, respectively. The solubility in water entry in series [1] is reported as “scarcely soluble”. Moreover, the EC50 with RBL-2H3 cells (setting [4]) was 3.9 µM.
On the same counts, the results for `CCCCCCCCCCCCCCCC(=O)N[C@@H](C)CO` [Example 31, N-palmitoyl-[S(+)-2-amino-1-propanol]] are over 5000 µg/mL, over 10000 µg/mL, “scarcely soluble” and 7.7 µM.
For `CCCCCCCCCCCCCCCC(=O)N[C@H](CO)c1ccccc1` [Example 2, N-palmitoyl-[(S)-2-amino-2-phenylethanol]], the solubility in series [1] (dmso) and in series [1] (ethanol) was over 10000 µg/mL throughout. In addition, the solubility in water entry in series [1] is given as “scarcely soluble”. Moreover, the inhibition at 100 µM in the series on RBL-2H3 cells (setting [5]) and with RBL-2H3 cells (setting [6]) was 100% each time. For the same compound, the EC50 with RBL-2H3 cells (setting [4]) was 1.8 µM; in the series with RBL-2H3 cells (setting [7]), 5 µM.
With `CCCCCCCCCCCCCCCC(=O)NCC(O)c1ccccc1` (stereo not drawn) [Example 3, N-(2-hydroxy-2-phenylethyl)-palmitoylamide], the solubility in series [1] (dmso) and in series [1] (ethanol) was over 10000 µg/mL throughout. Besides, the solubility in water result in series [1] was “scarcely soluble”. Besides, the inhibition at 100 µM in the series with RBL-2H3 cells (setting [5]) and with RBL-2H3 cells (setting [6]) was 100% in each case. Moreover, the EC50 turned out to be 1.2 µM in the series with RBL-2H3 cells (setting [4]) and 4 µM with RBL-2H3 cells (setting [7]).
For `C=C(C)[C@@H]1CCC(C)=C[C@H]1c1c(O)cc(CCCCC)cc1O` [Cannabidiol, cannabidiol, reference compound], in series [2], the IC50 was over 1 µM.
With `CCCCCCCCCCCCCCCC(=O)N[C@H](C)[C@@H](O)c1ccccc1` [Example 5, N-palmitoyl-[(1S,2R)-(+)-norephedrine]], the solubility in series [1] (dmso) and in series [1] (ethanol) was over 10000 µg/mL each time. In addition, the solubility in water entry in series [1] is recorded as “scarcely soluble”. Moreover, in the series on RBL-2H3 cells (setting [5]), the inhibition at 30 µM amounted to 82%. In the series with RBL-2H3 cells (setting [6]), the inhibition at 100 µM amounted to 100%. The EC50 stood at 8 µM with RBL-2H3 cells (setting [4]) and 7.6 µM in the series on RBL-2H3 cells (setting [7]).
On to `CCCCCCCCCCCCCCCC(=O)N[C@@H](C)[C@H](O)c1ccccc1` [Example 7, N-palmitoyl-[(1R,2S)-(-)-norephedrine]], for which the solubility in series [1] (dmso) and in series [1] (ethanol) was over 10000 µg/mL in each case. Also, in series [1], the solubility in water entry is “scarcely soluble”. In addition, the inhibition at 30 µM with RBL-2H3 cells (setting [5]) worked out at 93%. Besides, the inhibition at 100 µM in the series with RBL-2H3 cells (setting [6]) amounted to 100%. Moreover, the EC50 in the series with RBL-2H3 cells (setting [4]) was 4.7 µM.
Consider `CCCCCCCCCCCCCCCC(=O)N1CCOCC1` [Example 29, N-palmitoyl-morpholine], for which the solubility in series [1] (dmso) and in series [1] (hot ethanol) was over 10000 µg/mL in each case. Besides, in series [1], the solubility in water result was “scarcely soluble”. Further, the inhibition at 50 µM in the series with RBL-2H3 cells (Rattus norvegicus, RBL-2H3, read-out: 3H-serotonin release inhibition %, 0.2% DMSO, 50 μM (Table 8)) was determined as 36%. Also, the inhibition at 30 µM with RBL-2H3 cells (setting [6]) was found to be 88%. The EC50 in the series with RBL-2H3 cells (setting [4]) was 42 µM; in the series on RBL-2H3 cells (setting [7]) it was 3.5 µM.
For `CCCCCCCCCCCC(=O)N1CCOCC1` [Example 36, N-lauroyl-morpholine], the solubility in series [1] (dmso) and in series [1] (ethanol) was over 10000 µg/mL each time. Besides, the solubility in water entry in series [1] is on record as “scarcely soluble”. Further, the activity at 100 µM with RBL-2H3 cells (setting [3]) was found to be 51%.
Consider `CCCCCCCCCCCCCCCC(=O)N[C@@H](CO)[C@@H](O)c1ccccc1` [Example 4, N-palmitoyl-[(1S,2S)-(+)-2-amino-1-phenyl-1,3-propanediol]], for which the solubility in series [1] (dmso) and in series [1] (ethanol) was over 10000 µg/mL throughout. In addition, the solubility in water result in series [1] is recorded as “scarcely soluble”. The inhibition at 100 µM in the series on RBL-2H3 cells (setting [5]) and in the series with RBL-2H3 cells (setting [6]) was 100% each time. The EC50 in the series with RBL-2H3 cells (setting [4]) came to 78 µM; in the series with RBL-2H3 cells (setting [7]) it was 1.05 µM.
On to `CCCCCCCCCCCCCCCC(=O)N[C@@H](CO)Cc1ccccc1` [Example 10, N-palmitoyl-[(R)-(+)-2-amino-3-phenyl-1-propanol]], for which, in series [1] (chloroform), the solubility is over 10000 µg/mL. Further, the solubility in water entry in series [1] was “scarcely soluble”. Also, in the series with RBL-2H3 cells (setting [3]), the activity at 100 µM amounted to 0%. Further, the “effect of anandamide co-incubation on the ability to inhibit serotonin release” value with RBL-2H3 cells (co-incubation with anandamide, in words) was “reduces the ability”.
As to `CCCCCCCCCCCC(=O)NCCc1ccc(O)cc1` [Example 11, N-(p-hydroxyphenylethyl)-lauroylamide], the solubility in series [1] (dmso) and in series [1] (ethanol) was over 10000 µg/mL in each case. For the same compound, in series [1], the solubility in water entry is “scarcely soluble”. In the series with RBL-2H3 cells (setting [4]), the EC50 is 26 µM.
For the compound `O=C(/C=C/CCCCCCCCC(=O)NCCCO)NCCCO` [Example 13, N,N'-bis(3-hydroxypropyl)-trans-2-dodecenediamide], the solubility in series [1] (dmso) is over 5000 µg/mL. The solubility in water entry in series [1] is “scarcely soluble”. The inhibition at 200 µM in the series on RBL-2H3 cells (Rattus norvegicus, RBL-2H3, read-out: 3H-serotonin release inhibition %, 0.2% DMSO, 200 μM (Table 8)) was 65%. Moreover, the EC50 in the series on RBL-2H3 cells (setting [7]) came out at 32 µM.
Regarding `CCCCCCCCCCCCCCCC(=O)NCCCO` [Example 24, N-(3-hydroxypropyl)-palmitamide], the results for the solubility in series [1] (dmso) and in series [1] (n-octanol) were over 3000 µg/mL and over 10000 µg/mL, respectively. Besides, in series [1], the solubility in water entry is recorded as “scarcely soluble”. The activity at 60 µM in the series on RBL-2H3 cells (Rattus norvegicus, RBL-2H3, 0.25 h, 60 μM, 0.1% DMSO and 0.1% ethanol (Table 3), read-out: 3H-serotonin net release (%)) was determined as 67%. Besides, the inhibition at 60 µM in the series on RBL-2H3 cells (Rattus norvegicus, RBL-2H3, read-out: 3H-serotonin release inhibition %, 0.2% DMSO, 60 μM (Table 8)) came to 40%. Moreover, the inhibition at 100 µM with RBL-2H3 cells (setting [6]) stood at 88%. For the same compound, the EC50 with RBL-2H3 cells (setting [7]) amounted to 7.2 µM.
Regarding `CCCCCCCCCCCCCCCCCC(=O)N1CCOCC1` [Example 37, N-stearoyl-morpholine], the solubility in series [1] (hot ethanol) was over 10000 µg/mL. Further, the solubility in water result in series [1] is listed as “scarcely soluble”. Besides, the EC50 in the series on RBL-2H3 cells (setting [7]) came out at 15 µM.
